Like-named read-outs stand apart in the source and are kept apart here.
What was measured:
EPAC2 [1] = details: read-out: EPAC2 inhibitory activity IC50; cited from earlier work
EPAC2 [2] = details: read-out: inhibition of cAMP-mediated EPAC2 GEF activity IC50; cited from earlier work
EPAC1 [3] = molecular target: T1, EPAC1 (Homo sapiens, UniProt O95398); details: at 100 μM; cited from earlier work
T1 sequence (O95398 1-923): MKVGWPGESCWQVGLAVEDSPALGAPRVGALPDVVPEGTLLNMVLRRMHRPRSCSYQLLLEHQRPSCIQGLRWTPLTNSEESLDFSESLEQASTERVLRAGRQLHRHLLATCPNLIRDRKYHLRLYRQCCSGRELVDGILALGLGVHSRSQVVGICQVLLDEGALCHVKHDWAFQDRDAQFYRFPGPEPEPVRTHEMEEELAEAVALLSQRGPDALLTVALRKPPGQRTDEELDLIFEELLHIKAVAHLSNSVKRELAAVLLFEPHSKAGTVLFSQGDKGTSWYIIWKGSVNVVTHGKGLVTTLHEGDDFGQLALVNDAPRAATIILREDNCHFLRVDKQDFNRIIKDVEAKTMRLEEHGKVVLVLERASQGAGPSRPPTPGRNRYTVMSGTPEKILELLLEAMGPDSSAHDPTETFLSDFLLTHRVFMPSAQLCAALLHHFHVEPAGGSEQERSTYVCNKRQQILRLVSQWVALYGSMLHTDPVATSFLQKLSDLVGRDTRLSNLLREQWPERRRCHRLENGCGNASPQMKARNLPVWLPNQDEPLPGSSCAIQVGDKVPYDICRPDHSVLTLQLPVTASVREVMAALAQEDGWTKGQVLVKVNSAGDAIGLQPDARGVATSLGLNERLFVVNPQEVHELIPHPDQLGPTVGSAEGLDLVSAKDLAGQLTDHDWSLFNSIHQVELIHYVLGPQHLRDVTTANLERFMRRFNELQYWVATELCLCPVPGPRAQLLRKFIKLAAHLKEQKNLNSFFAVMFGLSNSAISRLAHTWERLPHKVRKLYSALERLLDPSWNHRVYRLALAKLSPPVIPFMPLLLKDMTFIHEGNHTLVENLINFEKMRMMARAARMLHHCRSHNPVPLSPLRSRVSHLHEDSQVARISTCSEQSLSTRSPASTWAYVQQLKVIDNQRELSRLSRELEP

EPAC1 [4] = molecular target: T1, EPAC1; type: biochemical; details: for EPAC inhibitory activities (in words): Rap1b-bGDP exchange assay

In the case of Cc1cc(C)c(Nc2ccc(Cl)c(C(F)(F)F)c2)c(C)c1 [Compound 3], the IC50 (EPAC2 [1]) is given as 400 nM, the IC50 (EPAC2 [2]) is given as 1000 nM and the “inhibition against EPAC1” value (EPAC1 [3]) is given as “no significant inhibition”.
In the case of CC(C)(C)c1ccc(C(=O)/C(C#N)=N/Nc2cc(Cl)cc(Cl)c2)cc1 [Compound 10, (E)-2-(4-(tert-Butyl)phenyl)-N-(3,5-dichlorophenyl)-2-oxoacetohydrazonoyl cyanide], the “improvement on EPAC1 inhibitory activity compared to compound 6” value (EPAC1 [4]; ratio of IC50 values vs compound 6) is reported as 2.5 fold.
In the case of N#C/C(=N\Nc1cc(Cl)cc(Cl)c1)C(=O)c1ccc(-c2ccccc2)cc1 [Compound 26], the “EPAC inhibitory activities (in words)” value (EPAC1 [4]) is reported as “complete loss of EPAC inhibitory activities”.
For COc1ccc(C(=O)/C(C#N)=N/Nc2cc(Cl)cc(Cl)c2)cc1OC [Compound 27], the “EPAC inhibitory activities (in words)” value (EPAC1 [4]) was “complete loss of EPAC inhibitory activities”.
